One experiment deals with T1, Gal4-RORγ-LBD (Homo sapiens, UniProt P51449).
T1 construct: expressed in transfected cells; host or cells: HEK-293 cells (pcDNA3.1neo plasmid)
T1 sequence (P51449 269-508 limits assumed): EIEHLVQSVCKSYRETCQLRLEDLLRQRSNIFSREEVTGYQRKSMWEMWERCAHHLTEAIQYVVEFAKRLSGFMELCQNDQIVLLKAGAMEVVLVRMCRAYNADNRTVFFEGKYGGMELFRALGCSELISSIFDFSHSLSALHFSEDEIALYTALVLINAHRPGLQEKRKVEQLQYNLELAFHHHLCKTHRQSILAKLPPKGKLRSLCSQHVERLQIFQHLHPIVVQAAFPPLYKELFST
As to the kind of experiment: Gal4-RORγ Luciferase Reporter Assay in HEK-293T Cells. Format: cell-based. The following applies: HEK-293 cells, 2 μM ursolic acid. In outline: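 Luminescence read-out (One-Glo, 10 min RT) after overnight compound exposure at 37 °C in HEK-293 cells carrying Gal4-RORγ-LBD plus a Gal4-luciferase reporter, in the presence of 2 μM ursolic acid. Max Response is the upper plateau from a 4-parameter logistic fit, normalized to untreated signal = 100.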

A further experiment has as its target T2, RORγ-LBD (Homo sapiens, UniProt P51449).
T2 construct: made in house; host or cells: SF9 cells (baculovirus)
T2 sequence (P51449 269-508 limits assumed): T1 sequence (P51449 269-508 limits assumed)
Description: RORγ-Ligand Binding Domain (LBD) TR-FRET Assay.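 For TR-FRET Assay Max Response: 665/615 nm ratio relative to signal without ursolic acid or compound set at 100.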 Format: biochemical. Put shortly:
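This TR-FRET coactivator assay pairs baculovirus-expressed His-RORγ-LBD (~3 nM final) with biotin-SRC1 LXXLL peptide at 200 nM final in pH 7.0 Tris/KCl/EDTA/DTT/BSA buffer.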
Background: Time-resolved FRET reads energy transfer from a long-lived donor to a nearby acceptor.

Results on 13 compounds are retold here after patent US10611740B2, “Aryl dihydro-2H-benzo[b][1,4]oxazine sulfonamide and related compounds for use as agonists of RORγ and the treatment of disease” (Lycera Corporation, priority 2015, dated 2020).

pEC50: −log10 of the molar value.

On to `CC(C)(C[C@H]1CN(S(=O)(=O)c2cccc(C(F)(F)F)c2)c2cc(-c3cc(Cl)cc(C(F)(F)F)c3)ccc2O1)C(=O)O` [Compound 32AB, (S)-3-(6-(3-chloro-5-(trifluoromethyl)phenyl)-4-((3-(trifluoromethyl)phenyl)sulfonyl)-3,4-dihydro-2H-benzo[b][1,4]oxazin-2-yl)-2,2-dimethylpropanoic acid], for which, at Gal4-RORγ-LBD, the pEC50 (usually the negative decadic logarithm of the EC50, by convention in mol/L) was above 6.30 and the “Gal4-RORγ Assay Max Response” value is given as “** (The symbol “**” indicates a value in the range of greater than 90 to 150)”. Moreover, on RORγ-LBD, the negative-log EC50 (pEC50) was above 6.30 and the “TR-FRET Assay Max Response” value is on record as “*** (The symbol “***” indicates a value in the range of greater than 150 to 200)”.

As to `CC(C)(C[C@H]1CN(S(=O)(=O)c2cccc(C(F)(F)F)c2)c2cc(-c3cccc4c3OC(F)(F)O4)ccc2O1)C(=O)O` [Compound 32AC, (S)-3-(6-(2,2-difluorobenzo[d]-[1,3]dioxol-4-yl)-4-((3-(trifluoro-methyl)phenyl)sulfonyl)-3,4-dihydro-2H-benzo[b][1,4]oxazin-2-yl)-2,2-dimethylpropanoic acid], at Gal4-RORγ-LBD, the pEC50 was above 6.30 and the “Gal4-RORγ Assay Max Response” value was “** (The symbol “**” indicates a value in the range of greater than 90 to 150)”. For the same compound, at RORγ-LBD, the pEC50 was above 6.30 and the “TR-FRET Assay Max Response” value is “*** (The symbol “***” indicates a value in the range of greater than 150 to 200)”.

Take `CC(C)(C[C@H]1CN(S(=O)(=O)c2cccc(C(F)(F)F)c2)c2cc(-c3cc(C(F)(F)F)ccc3Cl)ccc2O1)C(=O)O` [Compound 32AD, (S)-3-(6-(2-chloro-5-(trifluoromethyl)phenyl)-4-((3-(trifluoromethyl)phenyl)sulfonyl)-3,4-dihydro-2H-benzo[b][1,4]oxazin-2-yl)-2,2-dimethylpropanoic acid]: on Gal4-RORγ-LBD, the negative-log EC50 (pEC50) is above 6.30 and the “Gal4-RORγ Assay Max Response” value is listed as “* (The symbol “*” indicates a value in the range of 25 to 90)”. Further, at RORγ-LBD, the pEC50 was above 6.30 and the “TR-FRET Assay Max Response” value is given as “*** (The symbol “***” indicates a value in the range of greater than 150 to 200)”.

In the case of `CC(=O)c1ccc(F)c(-c2ccc3c(c2)N(S(=O)(=O)c2cccc(C(F)(F)F)c2)C[C@H](CC(C)(C)C(=O)O)O3)c1` [Compound 32AE, (S)-3-(6-(5-acetyl-2-fluoro-phenyl)-4-((3-(trifluoromethyl)-phenyl)sulfonyl)-3,4-dihydro-2H-benzo[b][1,4]oxazin-2-yl)-2,2-dimethylpropanoic acid], at Gal4-RORγ-LBD, the pEC50 was above 6.30 and the “Gal4-RORγ Assay Max Response” value is listed as “* (The symbol “*” indicates a value in the range of 25 to 90)”. Besides, on RORγ-LBD, the negative-log EC50 (pEC50) was above 6.30 and the “TR-FRET Assay Max Response” value is given as “*** (The symbol “***” indicates a value in the range of greater than 150 to 200)”.

Regarding `CC(C)(C[C@H]1CN(S(=O)(=O)c2cccc(C(F)(F)F)c2)c2cc(-c3ccccc3C#N)ccc2O1)C(=O)O` [Compound 32AF, (S)-3-(6-(2-cyanophenyl)-4-((3-(trifluoromethyl)phenyl)sulfonyl)-3,4-dihydro-2H-benzo[b][1,4]-oxazin-2-yl)-2,2-dimethyl-propanoic acid], at Gal4-RORγ-LBD, the pEC50 is 5.30 to 6.30 and the “Gal4-RORγ Assay Max Response” value is given as “** (The symbol “**” indicates a value in the range of greater than 90 to 150)”. For the same compound, at RORγ-LBD, the pEC50 is above 6.30 and the “TR-FRET Assay Max Response” value was “*** (The symbol “***” indicates a value in the range of greater than 150 to 200)”.

As for `COc1cc(F)cc(-c2ccc3c(c2)N(S(=O)(=O)c2cccc(C(F)(F)F)c2)C[C@H](CC(C)(C)C(=O)O)O3)c1` [Compound 32AG, (S)-3-(6-(3-fluoro-5-methoxy-phenyl)-4-((3-(trifluoromethyl)-phenyl)sulfonyl)-3,4-dihydro-2H-benzo[b][1,4]oxazin-2-yl)-2,2-dimethylpropanoic acid], on Gal4-RORγ-LBD, the pEC50 is above 6.30 and the “Gal4-RORγ Assay Max Response” value is “** (The symbol “**” indicates a value in the range of greater than 90 to 150)”. Besides, at RORγ-LBD, the pEC50 is above 6.30 and the “TR-FRET Assay Max Response” value is recorded as “**** (The symbol “****” indicates a value greater than 200)”.

Regarding `COc1cc(Cl)cc(-c2ccc3c(c2)N(S(=O)(=O)c2cccc(C(F)(F)F)c2)C[C@H](CC(C)(C)C(=O)O)O3)c1` [Compound 32AH, (S)-3-(6-(3-chloro-5-methoxy-phenyl)-4-((3-(trifluoromethyl)-phenyl)sulfonyl)-3,4-dihydro-2H-benzo[b][1,4]oxazin-2-yl)-2,2-dimethylpropanoic acid], at Gal4-RORγ-LBD, the negative-log EC50 (pEC50) was above 6.30 and the “Gal4-RORγ Assay Max Response” value is “** (The symbol “**” indicates a value in the range of greater than 90 to 150)”. Further, at RORγ-LBD, the pEC50 was above 6.30 and the “TR-FRET Assay Max Response” value is recorded as “*** (The symbol “***” indicates a value in the range of greater than 150 to 200)”.

Regarding `CC(C)(C[C@H]1CN(S(=O)(=O)c2cccc(C(F)(F)F)c2)c2cc(-c3cc(F)cc(Cl)c3F)ccc2O1)C(=O)O` [Compound 32AI, (S)-3-(6-(3-chloro-2,5-difluoro-phenyl)-4-((3-(trifluoromethyl)-phenyl)sulfonyl)-3,4-dihydro-2H-benzo[b][1,4]oxazin-2-yl)-2,2-dimethylpropanoic acid], on Gal4-RORγ-LBD, the pEC50 is above 6.30 and the “Gal4-RORγ Assay Max Response” value is reported as “** (The symbol “**” indicates a value in the range of greater than 90 to 150)”. In addition, at RORγ-LBD, the negative-log EC50 (pEC50) is above 6.30 and the “TR-FRET Assay Max Response” value is on record as “*** (The symbol “***” indicates a value in the range of greater than 150 to 200)”.

In the case of `COc1cc(S(=O)(=O)N2C[C@H](CCC(C)(C)C(=O)O)Oc3ccc(-c4cccc(C(F)(F)F)n4)cc32)ccc1F` [Compound 32AJ, (S)-4-(4-((4-fluoro-3-methoxy-phenyl)sulfonyl)-6-(6-(trifluoro-methyl)pyridin-2-yl)-3,4-dihydro-2H-benzo[b][1,4]oxazin-2-yl)-2,2-dimethylbutanoic acid], at Gal4-RORγ-LBD, the pEC50 was above 6.30 and the “Gal4-RORγ Assay Max Response” value is given as “** (The symbol “**” indicates a value in the range of greater than 90 to 150)”. Also, at RORγ-LBD, the negative logarithm of the EC50 (pEC50) was above 6.30 and the “TR-FRET Assay Max Response” value is “** (The symbol “**” indicates a value in the range of greater than 90 to 150)”.

`CC(C)(C[C@H]1CN(S(=O)(=O)c2cccc(C(F)(F)F)c2)c2cc(-c3cccc(C(F)F)n3)ccc2O1)C(=O)O` [Compound 32AK, (S)-3-(6-(6-(difluoromethyl)-pyridin-2-yl)-4-((3-(trifluoro-methyl)phenyl)sulfonyl)-3,4-dihydro-2H-benzo[b][1,4]oxazin-2-yl)-2,2-dimethylpropanoic acid]: on Gal4-RORγ-LBD, the pEC50 is above 6.30 and the “Gal4-RORγ Assay Max Response” value is “* (The symbol “*” indicates a value in the range of 25 to 90)”. Also, at RORγ-LBD, the pEC50 was above 6.30 and the “TR-FRET Assay Max Response” value is reported as “** (The symbol “**” indicates a value in the range of greater than 90 to 150)”.

On to `CC(C)(C[C@H]1CN(S(=O)(=O)c2cccc(C(F)(F)F)c2)c2cc(-c3cccc(C(F)F)c3)ccc2O1)C(=O)O` [Compound 32AL, (S)-3-(6-(3-(difluoromethyl)-phenyl)-4-((3-(trifluoromethyl)-phenyl)sulfonyl)-3,4-dihydro-2H-benzo[b][1,4]oxazin-2-yl)-2,2-dimethylpropanoic acid], for which, on Gal4-RORγ-LBD, the negative-log EC50 (pEC50) was above 6.30 and the “Gal4-RORγ Assay Max Response” value is “** (The symbol “**” indicates a value in the range of greater than 90 to 150)”. On RORγ-LBD, the negative-log EC50 (pEC50) is above 6.30 and the “TR-FRET Assay Max Response” value was “** (The symbol “**” indicates a value in the range of greater than 90 to 150)”.

Take `CC(C)(C[C@@H]1CN(S(=O)(=O)c2cccc(C(F)(F)F)c2)c2cc(-c3cc(F)cc(Cl)c3F)ccc2O1)C(=O)O` [Compound 32AO, (R)-3-(6-(3-chloro-2,5-difluoro-phenyl)-4-((3-(trifluoromethyl)-phenyl)sulfonyl)-3,4-dihydro-2H-benzo[b][1,4]oxazin-2-yl)-2,2-dimethylpropanoic acid]: on Gal4-RORγ-LBD, the negative-log EC50 (pEC50) was 5.30 to 6.30 and the “Gal4-RORγ Assay Max Response” value is “* (The symbol “*” indicates a value in the range of 25 to 90)”. For the same compound, on RORγ-LBD, the pEC50 was above 6.30 and the “TR-FRET Assay Max Response” value is recorded as “** (The symbol “**” indicates a value in the range of greater than 90 to 150)”.

On to `Cc1ccc(Cl)cc1-c1ccc2c(c1)N(S(=O)(=O)c1cccc(C(F)(F)F)c1)C[C@H](CC(C)(C)C(=O)O)O2` [Compound 32AR, (S)-3-(6-(5-chloro-2-methyl-phenyl)-4-((3-(trifluoromethyl)-phenyl)sulfonyl)-3,4-dihydro-2H-benzo[b][1,4]oxazin-2-yl)-2,2-dimethylpropanoic acid], for which, at Gal4-RORγ-LBD, the pEC50 is above 6.30 and the “Gal4-RORγ Assay Max Response” value is “** (The symbol “**” indicates a value in the range of greater than 90 to 150)”. Moreover, on RORγ-LBD, the negative logarithm of the EC50 (pEC50) was above 6.30 and the “TR-FRET Assay Max Response” value was “** (The symbol “**” indicates a value in the range of greater than 90 to 150)”.
